Here are results for 23 molecules from ChEMBL document CHEMBL4393657, “Tetrazole hybrids and their antifungal activities” (2019).

≈ marks a conversion by molar mass, not a printed value.

Holding throughout (format): functional
One assay deals with Fusarium oxysporum. The assay is described as follows: Antifungal activity against Fusarium oxysporum assessed as reduction in fungal cell growth incubated for 24 and 72 hrs by cup plate method.
Assay [1] has as its system Candida albicans. The assay is described as follows: Antifungal activity against Candida albicans assessed as reduction in fungal cell growth incubated for 24 and 72 hrs by cup plate method.
A further assay deals with Aspergillus flavus. Briefly: Antifungal activity against Aspergillus flavus assessed as reduction in fungal cell growth incubated for 24 and 72 hrs by cup plate method.
The next assay relates to Candida tropicalis. Briefly: Antifungal activity against Candida tropicalis assessed as reduction in fungal cell growth incubated for 48 hrs by broth microdilution method.
Assay [2] concerns Candida albicans. Briefly: Antifungal activity against Candida albicans assessed as reduction in fungal cell growth incubated for 48 hrs by broth microdilution method. (In broth dilution the organism is exposed to a series of concentrations in liquid medium.)
The subject of a further assay is Aspergillus niger. The assay is described as follows: Antifungal activity against Aspergillus niger assessed as reduction in fungal cell growth incubated for 72 hrs by broth microdilution method.
The test system of another assay is Nakaseomyces glabratus. Briefly: Antifungal activity against Candida glabrata assessed as reduction in fungal cell growth incubated for 48 hrs by broth microdilution method.
Another assay has as its system Pichia kudriavzevii. The assay is described as follows: Antifungal activity against Candida krusei assessed as reduction in fungal cell growth incubated for 48 hrs by broth microdilution method.
A further assay deals with Cryptococcus neoformans. Briefly: Antifungal activity against Cryptococcus neoformans LA314 assessed as reduction in fungal cell growth incubated for 48 hrs by broth microdilution method. The following applies: LA314, 48 h.
In the next assay the test system is Candida parapsilosis. Briefly: Antifungal activity against Candida parapsilosis ATCC 22019 assessed as reduction in fungal cell growth incubated for 48 hrs by broth microdilution method. The following applies: Lodderomyces parapsilosis, ATCC 22019, 48 h.

What is called MIC is the lowest concentration found to suppress growth.

For `Cc1ccc2c(c1)cc(C1CC(c3cc(Br)ccc3O)=NN1)c1nnnn12` (stereo unspecified), the MIC with Fusarium oxysporum, with Candida albicans [1] and in the assay on Aspergillus flavus was 25 to 100 µg/mL (≈ 59.1 to 236 µM) each time.
`Cc1ccc2cc(C3CC(c4cc(Br)ccc4O)=NN3)c3nnnn3c2c1` (stereo unspecified): the MIC in the assay on Fusarium oxysporum, in the assay with Candida albicans [1] and with Aspergillus flavus was 25 to 100 µg/mL (≈ 59.1 to 236 µM) throughout.
Turning to `Cc1cccc2c1cc(C1CC(c3cc(Br)ccc3O)=NN1)c1nnnn12` (stereo unspecified), the MIC with Fusarium oxysporum, in the assay with Candida albicans [1] and in the assay with Aspergillus flavus was 25 to 100 µg/mL (≈ 59.1 to 236 µM) each time.
For the molecule `CCOC(=O)C(C#N)C(c1cc2c(C)cccc2n2nnnc12)P(=O)(OCC)OCC` (stereo unspecified), the MIC in the assay on Fusarium oxysporum, with Candida albicans [1] and in the assay with Aspergillus flavus was 10 to 25 µg/mL (≈ 22.5 to 56.1 µM) throughout.
As for `COc1ccc2cc(C3CC(c4cc(Br)ccc4O)=NN3)c3nnnn3c2c1` (stereo unspecified), the MIC in the assay with Fusarium oxysporum, in the assay with Candida albicans [1] and with Aspergillus flavus was 25 to 100 µg/mL (≈ 56.9 to 228 µM) each time.
For the molecule `CC(n1nnnc1CCN1CCN(c2ccc(Cl)cc2)CC1)C(O)(Cn1cncn1)c1ccc(F)cc1F` (stereo unspecified), the MIC in the assay with Candida tropicalis, with Candida albicans [2], in the assay on Aspergillus niger, with Nakaseomyces glabratus, with Pichia kudriavzevii and in the assay with Cryptococcus neoformans was 0.5 to 16 µg/mL (≈ 0.919 to 29.4 µM) each time. Also, the MIC with Candida parapsilosis is 0.5 to 16 µg/mL (≈ 0.919 to 29.4 µM).
`OC(Cn1cncn1)(Cn1nnc(CCN2CCN(c3ccccc3)CC2)n1)c1ccc(F)cc1F` (stereo unspecified): the MIC in the assay with Candida tropicalis, in the assay on Candida albicans [2], in the assay with Aspergillus niger, in the assay with Nakaseomyces glabratus, in the assay on Pichia kudriavzevii and in the assay on Cryptococcus neoformans was 1 to 16 µg/mL (≈ 2.02 to 32.3 µM) each time. The MIC in the assay with Candida parapsilosis is 1 to 16 µg/mL (≈ 2.02 to 32.3 µM).
As for `C[C@H](n1nnc(CCN2CCN(c3ccc([N+](=O)[O-])cc3)CC2)n1)[C@](O)(Cn1cncn1)c1ccc(F)cc1F`, the MIC with Candida tropicalis, in the assay with Candida albicans [2], in the assay with Aspergillus niger, with Nakaseomyces glabratus, in the assay on Pichia kudriavzevii and with Cryptococcus neoformans was 0.25 to 16 µg/mL (≈ 0.451 to 28.9 µM) in each case. Also, the MIC with Candida parapsilosis lay in the range of 0.25 to 16 µg/mL (≈ 0.451 to 28.9 µM).
Consider `OC(Cn1cncn1)(Cn1nnc(CCN2CCN(Cc3ccccc3)CC2)n1)c1ccc(F)cc1F` (stereo unspecified), for which the MIC in the assay with Candida tropicalis, in the assay on Candida albicans [2], in the assay on Aspergillus niger, with Nakaseomyces glabratus, in the assay on Pichia kudriavzevii and with Cryptococcus neoformans was 1 to 16 µg/mL (≈ 1.96 to 31.4 µM) throughout. Moreover, the MIC in the assay with Candida parapsilosis was 1 to 16 µg/mL (≈ 1.96 to 31.4 µM).
For the molecule `OC(Cn1cncn1)(Cn1nnc(CCN2CCN(c3cccc(Cl)c3)CC2)n1)c1ccc(F)cc1F` (stereo unspecified), the MIC in the assay on Candida tropicalis, in the assay with Candida albicans [2], with Aspergillus niger, in the assay with Nakaseomyces glabratus, in the assay on Pichia kudriavzevii and in the assay with Cryptococcus neoformans was 1 to 16 µg/mL (≈ 1.89 to 30.2 µM) each time. For the same molecule, the MIC in the assay with Candida parapsilosis was in the range of 1 to 16 µg/mL (≈ 1.89 to 30.2 µM).
`CC(n1nnnc1CCN1CCN(c2ccccc2Cl)CC1)C(O)(Cn1cncn1)c1ccc(F)cc1F` (stereo unspecified): the MIC with Candida tropicalis, in the assay with Candida albicans [2], with Aspergillus niger, in the assay with Nakaseomyces glabratus, in the assay with Pichia kudriavzevii and in the assay on Cryptococcus neoformans was 0.5 to 16 µg/mL (≈ 0.919 to 29.4 µM) in each case. In addition, the MIC with Candida parapsilosis is 0.5 to 16 µg/mL (≈ 0.919 to 29.4 µM).
Regarding `CC(n1nnnc1CCN1CCN(c2ccc(F)cc2)CC1)C(O)(Cn1cncn1)c1ccc(F)cc1F` (stereo unspecified), the MIC with Candida tropicalis, in the assay on Candida albicans [2], with Aspergillus niger, with Nakaseomyces glabratus, in the assay with Pichia kudriavzevii and in the assay on Cryptococcus neoformans was 0.5 to 16 µg/mL (≈ 0.948 to 30.3 µM) in each case. The MIC in the assay on Candida parapsilosis is 0.5 to 16 µg/mL (≈ 0.948 to 30.3 µM).
Turning to `C[C@H](n1nnc(CCN2CCN(c3ccccc3)CC2)n1)[C@](O)(Cn1cncn1)c1ccc(F)cc1F`, the MIC in the assay on Candida tropicalis, in the assay with Candida albicans [2], in the assay on Aspergillus niger, in the assay with Nakaseomyces glabratus, with Pichia kudriavzevii and with Cryptococcus neoformans was 0.25 to 16 µg/mL (≈ 0.491 to 31.4 µM) in each case. Further, the MIC in the assay with Candida parapsilosis is 0.25 to 16 µg/mL (≈ 0.491 to 31.4 µM).
Take `C[C@H](n1nnnc1CCN1CCN(c2ccccc2)CC1)[C@](O)(Cn1cncn1)c1ccc(F)cc1F`: the MIC in the assay with Candida tropicalis, with Candida albicans [2], in the assay on Aspergillus niger, with Nakaseomyces glabratus, with Pichia kudriavzevii and with Cryptococcus neoformans was 0.12 to 16 µg/mL (≈ 0.235 to 31.4 µM) throughout. Also, the MIC in the assay on Candida parapsilosis lay within 0.12 to 16 µg/mL (≈ 0.235 to 31.4 µM).
On to `O=[N+]([O-])c1ccc(N2CCN(CCc3nnn(CC(O)(Cn4cncn4)c4ccc(F)cc4F)n3)CC2)cc1` (stereo unspecified), for which the MIC with Candida tropicalis, with Candida albicans [2], in the assay with Aspergillus niger, in the assay on Nakaseomyces glabratus, in the assay on Pichia kudriavzevii and in the assay on Cryptococcus neoformans was 1 to 16 µg/mL (≈ 1.85 to 29.6 µM) throughout. In the assay on Candida parapsilosis, the MIC lay within 1 to 16 µg/mL (≈ 1.85 to 29.6 µM).
Turning to `CCCCOc1ccccc1N1CCN(CCc2nnn(C(C)C(O)(Cn3cncn3)c3ccc(F)cc3F)n2)CC1` (stereo unspecified), the MIC with Candida tropicalis, in the assay with Candida albicans [2], with Aspergillus niger, in the assay with Nakaseomyces glabratus, in the assay on Pichia kudriavzevii and in the assay with Cryptococcus neoformans was 1 to 16 µg/mL (≈ 1.72 to 27.5 µM) each time. In addition, the MIC with Candida parapsilosis fell in the range of 1 to 16 µg/mL (≈ 1.72 to 27.5 µM).
Regarding `CC(n1nnnc1CCN1CCN(C(c2ccccc2)c2ccccc2)CC1)C(O)(Cn1cncn1)c1ccc(F)cc1F` (stereo unspecified), the MIC with Candida tropicalis, with Candida albicans [2], in the assay on Aspergillus niger, in the assay on Nakaseomyces glabratus, in the assay with Pichia kudriavzevii and in the assay with Cryptococcus neoformans was 0.5 to 16 µg/mL (≈ 0.834 to 26.7 µM) each time. Besides, in the assay on Candida parapsilosis, the minimum inhibitory concentration (MIC) is 0.5 to 16 µg/mL (≈ 0.834 to 26.7 µM).
Consider `C[C@H](n1nnc(CCN2CCN(c3cccc(C(F)(F)F)c3)CC2)n1)[C@](O)(Cn1cncn1)c1ccc(F)cc1F`, for which the MIC with Candida tropicalis, with Candida albicans [2], in the assay with Aspergillus niger, in the assay with Nakaseomyces glabratus, in the assay with Pichia kudriavzevii and in the assay on Cryptococcus neoformans was 0.25 to 16 µg/mL (≈ 0.433 to 27.7 µM) in each case. In addition, the MIC with Candida parapsilosis is 0.25 to 16 µg/mL (≈ 0.433 to 27.7 µM).
`C[C@H](n1nnnc1CCN1CCN(c2c(Cl)cccc2Cl)CC1)[C@](O)(Cn1cncn1)c1ccc(F)cc1F`: the MIC in the assay with Candida tropicalis, in the assay on Candida albicans [2], in the assay with Aspergillus niger, in the assay on Nakaseomyces glabratus, in the assay on Pichia kudriavzevii and with Cryptococcus neoformans was 0.12 to 16 µg/mL (≈ 0.207 to 27.7 µM) throughout. Also, the MIC in the assay with Candida parapsilosis lay in the range of 0.12 to 16 µg/mL (≈ 0.207 to 27.7 µM).
Regarding `COc1ccc(N2CCN(CCc3nnnn3C(C)C(O)(Cn3cncn3)c3ccc(F)cc3F)CC2)cc1` (stereo unspecified), the MIC in the assay on Candida tropicalis, in the assay on Candida albicans [2], in the assay with Aspergillus niger, in the assay with Nakaseomyces glabratus, with Pichia kudriavzevii and in the assay on Cryptococcus neoformans was 0.5 to 16 µg/mL (≈ 0.927 to 29.7 µM) throughout. In the assay with Candida parapsilosis, the MIC lay in the range of 0.5 to 16 µg/mL (≈ 0.927 to 29.7 µM).
For the molecule `C[C@H](n1nnc(CCN2CCN(c3ccccn3)CC2)n1)[C@](O)(Cn1cncn1)c1ccc(F)cc1F`, the MIC in the assay with Candida tropicalis, in the assay with Candida albicans [2], in the assay on Aspergillus niger, in the assay on Nakaseomyces glabratus, in the assay on Pichia kudriavzevii and with Cryptococcus neoformans was 0.25 to 16 µg/mL (≈ 0.49 to 31.3 µM) in each case. Moreover, the MIC in the assay with Candida parapsilosis is 0.25 to 16 µg/mL (≈ 0.49 to 31.3 µM).
Take `CCCCOc1ccccc1N1CCN(CCc2nnnn2[C@@H](C)[C@](O)(Cn2cncn2)c2ccc(F)cc2F)CC1`: the MIC in the assay on Candida tropicalis, in the assay on Candida albicans [2], with Aspergillus niger, in the assay with Nakaseomyces glabratus, with Pichia kudriavzevii and with Cryptococcus neoformans was 0.12 to 16 µg/mL (≈ 0.206 to 27.5 µM) each time. Moreover, in the assay on Candida parapsilosis, the MIC fell in the range of 0.12 to 16 µg/mL (≈ 0.206 to 27.5 µM).
For the molecule `COc1ccc(N2CCN(CCc3nnnn3[C@@H](C)[C@](O)(Cn3cncn3)c3ccc(F)cc3F)CC2)cc1`, the minimal inhibitory concentration (MIC) in the assay on Candida tropicalis, in the assay on Candida albicans [2], in the assay with Aspergillus niger, with Nakaseomyces glabratus, in the assay on Pichia kudriavzevii and with Cryptococcus neoformans was 0.12 to 16 µg/mL (≈ 0.222 to 29.7 µM) each time. Also, the MIC in the assay with Candida parapsilosis fell in the range of 0.12 to 16 µg/mL (≈ 0.222 to 29.7 µM).
